Test results published in publication PMC3634896 (Bioorganic & medicinal chemistry letters, 2013).
Where “and” joins values, the source holds several entries; their conditions need not be identical. Identical values can stand only once.

Tests used:
human M5 = molecular target: T1, human M5 (Homo sapiens, UniProt P08912); test: M5 PAM concentration-response-curve; type: cell-based; conditions: Table 1, average of three independent experiments
T1 sequence (P08912 1-532): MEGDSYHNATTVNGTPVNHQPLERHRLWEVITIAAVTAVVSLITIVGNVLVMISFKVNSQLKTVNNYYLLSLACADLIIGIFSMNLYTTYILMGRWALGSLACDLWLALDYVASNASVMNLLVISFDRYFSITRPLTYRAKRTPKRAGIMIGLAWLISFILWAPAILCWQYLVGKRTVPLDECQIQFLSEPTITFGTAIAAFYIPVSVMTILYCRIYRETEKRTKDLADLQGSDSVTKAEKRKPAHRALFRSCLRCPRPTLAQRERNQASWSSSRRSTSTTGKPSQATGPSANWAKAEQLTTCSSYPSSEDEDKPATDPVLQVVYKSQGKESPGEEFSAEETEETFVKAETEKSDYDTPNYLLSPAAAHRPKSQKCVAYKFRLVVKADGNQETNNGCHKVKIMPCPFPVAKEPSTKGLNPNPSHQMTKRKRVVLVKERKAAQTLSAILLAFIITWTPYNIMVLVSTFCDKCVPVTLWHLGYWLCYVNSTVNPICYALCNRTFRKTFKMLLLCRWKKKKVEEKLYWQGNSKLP

[1] = ancillary pharmacology profile
M1-M4 [2] = test: human mAChR selectivity versus M1-M4; type: cell-based; conditions: read-out: M1-M4 EC50s; human data is the same as rat
CYP = CYP profile; type: in vitro ADME
rat M5 = molecular target: T2, rat M5 (Rattus norvegicus, UniProt P08911); test: M5 PAM CRC, rat M5; type: cell-based
T2 sequence (P08911 1-531): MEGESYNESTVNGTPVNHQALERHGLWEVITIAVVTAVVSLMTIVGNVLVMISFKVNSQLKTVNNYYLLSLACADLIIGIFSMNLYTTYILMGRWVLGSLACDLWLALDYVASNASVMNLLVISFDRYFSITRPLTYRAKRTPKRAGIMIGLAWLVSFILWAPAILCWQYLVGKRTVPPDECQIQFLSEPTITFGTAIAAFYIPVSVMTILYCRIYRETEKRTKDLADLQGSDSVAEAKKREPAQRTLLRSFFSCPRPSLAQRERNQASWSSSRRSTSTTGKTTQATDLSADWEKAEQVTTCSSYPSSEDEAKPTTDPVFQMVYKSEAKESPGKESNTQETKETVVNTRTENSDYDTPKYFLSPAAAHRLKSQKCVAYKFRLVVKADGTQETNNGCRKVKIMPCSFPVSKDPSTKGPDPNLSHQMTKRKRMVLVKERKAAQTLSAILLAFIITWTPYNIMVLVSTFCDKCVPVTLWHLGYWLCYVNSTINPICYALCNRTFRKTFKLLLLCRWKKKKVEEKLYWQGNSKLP

M1-M4 [3] = test: rat mAChR selectivity versus M1-M4; type: cell-based; conditions: read-out: M1-M4 EC50s; rat (Fig. 5C); text does not state species

Row | pEC50±SEM (human M5) | ancillary pharmacology profile [1] | EC50 (M1-M4 [2]) [µM] | CYP profile (CYP) | EC50 (rat M5) [µM] | EC50 (M1-M4 [3]) | Compound
1 | 6.35±0.04 | – | – | – | – | – | O=C1C(=O)N(CCOc2ccc(Cl)cc2)c2ccc(OC(F)(F)F)cc21 [Compound 19b]
2 | 6.28±0.03 | – | – | – | – | – | Cc1cccc(OCCN2C(=O)C(=O)c3cc(OC(F)(F)F)ccc32)c1 [Compound 19d]
3 | 6.39±0.04 | relatively clean | > 30 | relatively clean | 0.5 | > 30 µM and < 30 µM | O=C1C(=O)N(CCOc2ccccc2)c2ccc(OC(F)(F)F)cc21 [ML326, 1-(2-phenoxyethyl)-5-(trifluoromethoxy)indoline-2,3-dione]
